Measured values as given in the supplement of paper PMC10307832.

Tests used:
Assay in all cases: relative viability (nuclei count vs DMSO), 5 days (fraction); higher = more cells survive
UMC-11 = system: UMC-11
In short: (§1)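 Five library-drug doses in √10 steps were combined with a fixed anchor-drug dose, or a single drug was given alone, by pin tool to lung cancer cell lines in 1536-well plates the day after seeding. Nuclei were stained and counted after 5 days. Relative viability is the nuclei count in treated wells over that in vehicle wells, taken as the median of duplicate plates.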

NCI-H358 = system: NCI-H358
In short: as §1

SK-LU-1 = system: SK-LU-1
In short: as §1

NCI-H1734 = system: NCI-H1734
In short: as §1

NCI-H2228 = system: NCI-H2228
In short: as §1

HCC-78 = system: HCC-78
In short: as §1

NCI-H1975 = system: NCI-H1975
In short: as §1

NCI-H727 = system: NCI-H727
In short: as §1

NCI-H1355 = system: NCI-H1355
In short: as §1

NCI-H2085 = system: NCI-H2085
In short: as §1

NCI-H2126 = system: NCI-H2126
In short: as §1

PC-14 = system: PC-14
In short: as §1

201T = system: 201T
In short: as §1

NCI-H647 = system: NCI-H647
In short: as §1

NCI-H1395 = system: NCI-H1395
In short: as §1

LU99A = system: LU99A
In short: as §1

HCC-44 = system: HCC-44
In short: as §1

LOU-NH91 = system: LOU-NH91
In short: as §1

HCC-366 = system: HCC-366
In short: as §1

NCI-H2087 = system: NCI-H2087
In short: as §1

SK-MES-1 = system: SK-MES-1
In short: as §1

BEN = system: BEN
In short: as §1

NCI-H322M = system: NCI-H322M
In short: as §1

Work on Oc1nc(-c2ccc(C(F)(F)F)cc2)nc2c1CSCC2 [XAV939] + CC(=O)c1c(C)c2cnc(Nc3ccc(N4CCNCC4)cn3)nc2n(C2CCCC2)c1=O [Palbociclib] (partner 0.5 µM) yielded a relative viability (UMC-11; first compound 0.08 µM) of 0.326, a relative viability (UMC-11; first compound 0.253 µM) of 0.287 and a relative viability (UMC-11; first compound 0.8 µM) of 0.355. The relative viability (UMC-11; first compound 2.53 µM) was 0.232, the relative viability (NCI-H358; first compound 0.08 µM) was 0.149 and the relative viability (NCI-H358; first compound 0.253 µM) was 0.109. It also gave a relative viability (NCI-H358; first compound 0.8 µM) of 0.154, a relative viability (NCI-H358; first compound 2.53 µM) of 0.166 and a relative viability (SK-LU-1; first compound 0.08 µM) of 0.387. For the same compound, the relative viability (SK-LU-1; first compound 0.253 µM) was 0.335, the relative viability (SK-LU-1; first compound 0.8 µM) was 0.396 and the relative viability (SK-LU-1; first compound 2.53 µM) was 0.394. The relative viability (NCI-H1734; first compound 0.08 µM) was 0.346, the relative viability (NCI-H1734; first compound 0.253 µM) was 0.3 and the relative viability (NCI-H1734; first compound 0.8 µM) was 0.321. It also gave a relative viability (NCI-H1734; first compound 2.53 µM) of 0.357, a relative viability (NCI-H2228; first compound 0.08 µM) of 0.971 and a relative viability (NCI-H2228; first compound 0.253 µM) of 0.613. The relative viability (NCI-H2228; first compound 0.8 µM) was 0.664, the relative viability (NCI-H2228; first compound 2.53 µM) was 0.657 and the relative viability (HCC-78; first compound 0.08 µM) was 0.479. For the same compound, the relative viability (HCC-78; first compound 0.253 µM) was 0.382, the relative viability (HCC-78; first compound 0.8 µM) was 0.466 and the relative viability (HCC-78; first compound 2.53 µM) was 0.527. The relative viability (NCI-H1975; first compound 0.08 µM) was 0.54, the relative viability (NCI-H1975; first compound 0.253 µM) was 0.483 and the relative viability (NCI-H1975; first compound 0.8 µM) was 0.618. The relative viability (NCI-H1975; first compound 2.53 µM) was 0.508, the relative viability (NCI-H727; first compound 0.08 µM) was 0.711 and the relative viability (NCI-H727; first compound 0.8 µM) was 0.642. For the same compound, the relative viability (NCI-H727; first compound 2.53 µM) was 0.644, the relative viability (NCI-H1355; first compound 0.08 µM) was 0.401 and the relative viability (NCI-H1355; first compound 0.253 µM) was 0.319. It also gave a relative viability (NCI-H1355; first compound 0.8 µM) of 0.351, a relative viability (NCI-H1355; first compound 2.53 µM) of 0.282 and a relative viability (NCI-H2085; first compound 0.08 µM) of 0.489. The relative viability (NCI-H2085; first compound 0.253 µM) was 0.435, the relative viability (NCI-H2085; first compound 0.8 µM) was 0.491 and the relative viability (NCI-H2085; first compound 2.53 µM) was 0.451. It also gave a relative viability (NCI-H2126; first compound 0.08 µM) of 0.301, a relative viability (NCI-H2126; first compound 0.253 µM) of 0.352 and a relative viability (NCI-H2126; first compound 0.8 µM) of 0.35. The relative viability (NCI-H2126; first compound 2.53 µM) was 0.336, the relative viability (PC-14; first compound 0.08 µM) was 0.723 and the relative viability (PC-14; first compound 0.253 µM) was 0.47. For the same compound, the relative viability (PC-14; first compound 0.8 µM) was 0.451, the relative viability (PC-14; first compound 2.53 µM) was 0.375 and the relative viability (201T; first compound 0.08 µM) was 0.362. For the same compound, the relative viability (201T; first compound 0.253 µM) was 0.315, the relative viability (201T; first compound 0.8 µM) was 0.338 and the relative viability (201T; first compound 2.53 µM) was 0.3. It also gave a relative viability (NCI-H647; first compound 0.08 µM) of 0.406, a relative viability (NCI-H647; first compound 0.253 µM) of 0.298 and a relative viability (NCI-H647; first compound 0.8 µM) of 0.277. The relative viability (NCI-H647; first compound 2.53 µM) was 0.293, the relative viability (NCI-H1395; first compound 0.08 µM) was 0.644 and the relative viability (NCI-H1395; first compound 0.253 µM) was 0.575. It also gave a relative viability (NCI-H1395; first compound 0.8 µM) of 0.569, a relative viability (NCI-H1395; first compound 2.53 µM) of 0.568 and a relative viability (LU99A; first compound 0.08 µM) of 0.477. The relative viability (LU99A; first compound 0.253 µM) was 0.406, the relative viability (LU99A; first compound 0.8 µM) was 0.433 and the relative viability (LU99A; first compound 2.53 µM) was 0.424. The relative viability (HCC-44; first compound 0.08 µM) was 0.899, the relative viability (HCC-44; first compound 0.253 µM) was 0.842 and the relative viability (HCC-44; first compound 0.8 µM) was 0.888. For the same compound, the relative viability (HCC-44; first compound 2.53 µM) was 0.807, the relative viability (LOU-NH91; first compound 0.08 µM) was 0.609 and the relative viability (LOU-NH91; first compound 0.253 µM) was 0.54. It also gave a relative viability (LOU-NH91; first compound 0.8 µM) of 0.54, a relative viability (LOU-NH91; first compound 2.53 µM) of 0.419 and a relative viability (HCC-366; first compound 0.08 µM) of 0.444. For the same compound, the relative viability (HCC-366; first compound 0.253 µM) was 0.334, the relative viability (HCC-366; first compound 0.8 µM) was 0.352 and the relative viability (HCC-366; first compound 2.53 µM) was 0.261. For the same compound, the relative viability (NCI-H2087; first compound 0.08 µM) was 0.325, the relative viability (NCI-H2087; first compound 0.253 µM) was 0.182 and the relative viability (NCI-H2087; first compound 0.8 µM) was 0.224. For the same compound, the relative viability (NCI-H2087; first compound 2.53 µM) was 0.164, the relative viability (SK-MES-1; first compound 0.08 µM) was 0.288 and the relative viability (SK-MES-1; first compound 0.253 µM) was 0.299. It also gave a relative viability (SK-MES-1; first compound 0.8 µM) of 0.338, a relative viability (SK-MES-1; first compound 2.53 µM) of 0.297 and a relative viability (BEN; first compound 0.08 µM) of 0.508. It also gave a relative viability (BEN; first compound 0.253 µM) of 0.438, a relative viability (BEN; first compound 0.8 µM) of 0.485 and a relative viability (BEN; first compound 2.53 µM) of 0.45. The relative viability (NCI-H322M; first compound 0.08 µM) was 0.521, the relative viability (NCI-H322M; first compound 0.253 µM) was 0.464 and the relative viability (NCI-H322M; first compound 0.8 µM) was 0.456. The relative viability (NCI-H322M; first compound 2.53 µM) was 0.433.
